Patent publication US6492416B1, “4,5-diaryl-3(2H)-furanone derivatives as cyclooxygenase-2 inhibitors” (Pacific Corporation, priority 1999, dated 2002)
Converted amounts (≈) assume the structure as drawn.

Experiments:
COX-2 = target: T1, COX-2 (Mus musculus, UniProt Q05769); experiment: Evaluation of COX-2 activity: PGE2 formation in aspirin-treated, LPS-stimulated mouse peritoneal macrophages; assay type: cell-based; conditions: for IC50: read-out: IC50, μg/ml COX-2 (converted)
T1 sequence (Q05769 18-604): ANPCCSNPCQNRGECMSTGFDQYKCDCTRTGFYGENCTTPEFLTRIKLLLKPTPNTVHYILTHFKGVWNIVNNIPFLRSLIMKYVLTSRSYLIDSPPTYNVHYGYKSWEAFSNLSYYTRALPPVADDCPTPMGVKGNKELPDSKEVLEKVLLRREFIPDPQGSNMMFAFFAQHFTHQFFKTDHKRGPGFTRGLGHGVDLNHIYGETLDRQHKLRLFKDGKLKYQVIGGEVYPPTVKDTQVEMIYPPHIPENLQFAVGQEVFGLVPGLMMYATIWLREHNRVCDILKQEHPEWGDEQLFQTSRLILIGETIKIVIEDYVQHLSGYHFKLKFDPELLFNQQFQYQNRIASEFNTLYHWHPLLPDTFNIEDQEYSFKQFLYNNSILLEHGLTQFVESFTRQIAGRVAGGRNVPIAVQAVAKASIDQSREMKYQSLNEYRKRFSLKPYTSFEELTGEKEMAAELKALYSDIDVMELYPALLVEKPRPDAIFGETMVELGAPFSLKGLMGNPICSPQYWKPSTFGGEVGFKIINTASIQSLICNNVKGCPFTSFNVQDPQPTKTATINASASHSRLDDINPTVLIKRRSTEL
Experimental: (§1) Evaluation of in vitro COX-2 and COX-1 Activity [J. Pharmacol. Exp. Ther. 166, 96 (1969)]
(§2) The abdominal skin of a C57BL/6 mouse was sanitized with 70% aqueous ethanol, and was removed without damaging the peritoneum. 5 ml of cold phosphate buffer solution (PBS) was then injected into the abdominal cavity. After a minute, the peritoneal fluid containing the macrophages was collected using a syringe and a needle. The collected fluid was centrifuged for 5 min at 1500 rpm to afford pellets of cells. The pellets were then dispersed in the RPMI-1640 culture medium containing 100 units/ml penicillin and 100 μg/ml streptomycin.
The pellets dispersed as above were treated with 500 μM aspirin in order to knock out the activity of the COX-1 enzymes in the cells. The suspension was then diluted with the RPMI-1640 medium to contain 1×10^6 cells/ml. 100 μl of the suspension was added to each well of a 96-well ELISA plate. Then the plate was incubated for 2 hrs at 37° C. under 5% CO2 in order to fix the macrophages onto the plate. The cells, which were not fixed onto the plate were removed by washing with PBS two times. […] The RPMI-1640 medium containing 3% fetal bovine serum albumin was added to each well of the plate, which was followed by stimulation with 10 μg/ml lipopolysaccharide (LPS). […] The LPS-treated suspensions were incubated for 16 hours at 37° C. under 5% CO2 to induce COX-2. Then the culture medium was removed and the macrophages were washed two times with PBS. Then 130 μl RPMI-1640 culture medium was added to each well and the macrophage solutions were incubated at 37° C. for 10 minutes, which was followed by the treatment with 10 μM arachidonic acid and an appropriate amount of compounds of this invention. The plate was incubated for another 10 minutes. The upper solution was collected using a micropipette and was subjected to determination of PGE2 amount in the solution. The amount of PGE2 present in the collected solution was determined either by a known radio-immuno assay or by a known enzyme-immunoassay [Methods in Enzymol. 86, 258 (1982); Methods in Enzymol. 187, 24 (1990)]. The extent of COX-2 inhibition by a compound of the present invention was calculated by assuming, that the amount of PGE2 formed with the treatment of 10 μg/ml arachidonic acid was used is the maximum possible amount of PGE2, and that the amount of PGE2 formed without the treatment of arachidonic acid is the minimum possible amount of PGE2.
(§3) In order to determine IC50 for a compound of this invention, enzymatic activities were measured at multiple concentrations of compounds of this invention around IC50 of the compound. Usually enzymatic activities at 4˜5 concentrations were measured to calculate out IC50 for a compound of this invention.

COX-1 = target: T2, COX-1 (Mus musculus, UniProt P22437); experiment: Evaluation of COX-1 activity: PGE2 formation in mouse peritoneal macrophages without aspirin and LPS treatment; assay type: cell-based; conditions: for IC50: read-out: IC50, μg/ml COX-1 (converted)
T2 sequence (P22437 27-602): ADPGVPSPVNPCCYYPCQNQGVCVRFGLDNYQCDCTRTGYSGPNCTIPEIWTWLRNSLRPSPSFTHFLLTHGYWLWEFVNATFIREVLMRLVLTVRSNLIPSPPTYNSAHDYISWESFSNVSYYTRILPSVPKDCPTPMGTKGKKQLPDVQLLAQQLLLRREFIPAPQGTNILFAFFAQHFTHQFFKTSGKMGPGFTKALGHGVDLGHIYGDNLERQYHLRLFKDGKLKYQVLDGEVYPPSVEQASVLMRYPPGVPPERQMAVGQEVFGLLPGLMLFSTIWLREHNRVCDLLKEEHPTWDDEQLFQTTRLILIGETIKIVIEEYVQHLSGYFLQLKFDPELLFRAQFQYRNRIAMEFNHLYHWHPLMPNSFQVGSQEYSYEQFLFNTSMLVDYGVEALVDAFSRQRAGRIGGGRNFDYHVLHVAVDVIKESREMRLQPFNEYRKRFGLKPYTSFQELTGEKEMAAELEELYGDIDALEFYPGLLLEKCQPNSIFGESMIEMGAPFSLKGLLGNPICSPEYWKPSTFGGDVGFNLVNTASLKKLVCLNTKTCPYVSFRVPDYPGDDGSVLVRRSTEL
Experimental: as §1, §2
The pellets dispersed as above were treated with 500 μM aspirin in order to knock out the activity of the COX-1 enzymes in the cells. The suspension was then diluted with the RPMI-1640 medium to contain 1×10^6 cells/ml. 100 μl of the suspension was added to each well of a 96-well ELISA plate. Then the plate was incubated for 2 hrs at 37° C. under 5% CO2 in order to fix the macrophages onto the plate. The cells, which were not fixed onto the plate were removed by washing with PBS two times. The purity of macrophages obtained thereby was confirmed by differential counting. The RPMI-1640 medium containing 3% fetal bovine serum albumin was added to each well of the plate, which was followed by stimulation with 10 μg/ml lipopolysaccharide (LPS). Usually 5×10^5 cells/ml were present by this preparation. The LPS-treated suspensions were incubated for 16 hours at 37° C. under 5% CO2 to induce COX-2. Then the culture medium was removed and the macrophages were washed two times with PBS. Then 130 μl RPMI-1640 culture medium was added to each well and the macrophage solutions were incubated at 37° C. for 10 minutes, which was followed by the treatment with 10 μM arachidonic acid and an appropriate amount of compounds of this invention. The plate was incubated for another 10 minutes. The upper solution was collected using a micropipette and was subjected to determination of PGE2 amount in the solution. The amount of PGE2 present in the collected solution was determined either by a known radio-immuno assay or by a known enzyme-immunoassay [Methods in Enzymol. 86, 258 (1982); Methods in Enzymol. 187, 24 (1990)]. The extent of COX-2 inhibition by a compound of the present invention was calculated by assuming, that the amount of PGE2 formed with the treatment of 10 μg/ml arachidonic acid was used is the maximum possible amount of PGE2, and that the amount of PGE2 formed without the treatment of arachidonic acid is the minimum possible amount of PGE2.
In the evaluation of COX-1 inhibitory activity by a compound of the present invention, the same procedures employed for evaluation of COX-2 activity were employed, except omitting the following two steps: 1) the treatment with aspirin for knockout of COX-1 activity and 2) treatment with LPS for induction of COX-2.
as §3

Row | IC50, μg/ml COX-2 (COX-2) | IC50, μg/ml COX-1 (COX-1) | IC50 (COX-2) | IC50 (COX-1) | SMILES
1 | 0.02 µg/mL (≈ 0.0439 µM) | 30 µg/mL (≈ 65.8 µM) | – | – | CC1(C)OC(c2ccc(S(C)(=O)=O)c(Br)c2)=C(c2cccc(Cl)c2)C1=O [Example 342]
2 | 1 µg/mL (≈ 2.48 µM) | 300 µg/mL (≈ 745 µM) | – | – | CS(=O)(=O)c1ccc(C2=C(c3cccc(F)c3)C(=O)C3(CCOCC3)O2)cc1 [Example 261, 3-(3-Fluorophenyl)-2-{4-(methylsulfonyl)phenyl}-1,8-dioxa-spiro[4,5]dec-2-en-4-one]
3 | 0.08 µg/mL (≈ 0.204 µM) | 200 µg/mL (≈ 510 µM) | – | – | Cc1cc(C2=C(c3cc(F)cc(F)c3)C(=O)C(C)(C)O2)ccc1S(C)(=O)=O [Example 382, 4-(3,5-Difluorophenyl)-2,2-dimethyl-5-{3-methyl-4-(methylsulfonyl)phenyl}-3(2H)-furanone]
4 | 0.03 µg/mL (≈ 0.0797 µM) | 3 µg/mL (≈ 7.97 µM) | – | – | CCC1(C)OC(c2ccc(S(C)(=O)=O)cc2)=C(c2ccc(C)s2)C1=O (stereo not shown) [Example 225]
5 | 0.03 µg/mL (≈ 0.083 µM) | 20 µg/mL (≈ 55.3 µM) | – | – | CC1(C)OC(c2ccc(S(N)(=O)=O)c(F)c2)=C(c2ccccc2)C1=O [Example 300, 5-{4(Aminosulfonyl)-3-fluorophenyl}-2,2-dimethyl-4-phenyl-3(2H)-furanone]
6 | 0.08 µg/mL (≈ 0.175 µM) | 200 µg/mL (≈ 437 µM) | – | – | CC1(C)OC(c2ccc(S(C)(=O)=O)c(Br)c2)=C(c2cc(F)ccc2F)C1=O [Example 344]
7 | 0.08 µg/mL (≈ 0.203 µM) | 30 µg/mL (≈ 76.3 µM) | – | – | Cc1cc(C2=C(c3cc(F)cc(F)c3)C(=O)C(C)(C)O2)ccc1S(N)(=O)=O [Example 384, 5-{4-(Aminosulfonyl)-3-methylphenyl}-4-(3-difluorophenyl)-2,2-dimethyl-3(2H)-furanone]
8 | – | – | 0.0753 µM | 7.53 µM | CCCc1ccc(C2=C(c3ccc(S(C)(=O)=O)cc3)OC(C)(CC)C2=O)cc1 (stereo not shown) [Example 202]
9 | 0.3 µg/mL (≈ 0.739 µM) | 600 µg/mL (≈ 1480 µM) | – | – | CCNS(=O)(=O)c1ccc(C2=C(c3ccccc3)C(=O)C(C)(C)O2)cc1Cl [Example 373, 5-{3-Chloro-4-(N-ethylaminosulfonyl)phenyl}-2,2-dimethyl-4-phenyl-3(2H)-furanone]
10 | 0.05 µg/mL (≈ 0.133 µM) | 30 µg/mL (≈ 79.6 µM) | – | – | CC1(C)OC(c2ccc(S(C)(=O)=O)c(Cl)c2)=C(c2ccccc2)C1=O [Example 357, 5-{3-Chloro-4(methylsulfonyl)phenyl}-2,2-dimethyl-4-phenyl-3(2H)-furanone]

The remaining lines, values behind:

Row | SMILES | IC50, μg/ml COX-2 (COX-2) | IC50, μg/ml COX-1 (COX-1) | IC50 (COX-2) | IC50 (COX-1)
11 | CCC1(C)OC(c2ccc(S(C)(=O)=O)cc2)=C(c2cccc(C(C)C)c2)C1=O (stereo not shown) [Example 201] | – | – | 0.251 µM | 50.2 µM
12 | CCC1(CC)OC(c2ccc(S(C)(=O)=O)cc2)=C(c2ccc(OC)c(F)c2)C1=O [Example 50, 2,2-Diethyl-4-(3-fluoro-4-methoxyphenyl)-5-{4-(methylsulfonyl)phenyl}-3(2H)-furanone] | 0.03 µg/mL (≈ 0.0717 µM) | 20 µg/mL (≈ 47.8 µM) | – | –
13 | CC1(C)OC(c2ccc(S(C)(=O)=O)cc2)=C(c2cccs2)C1=O [Example 113] | 0.03 µg/mL (≈ 0.0861 µM) | 3 µg/mL (≈ 8.61 µM) | – | –
14 | COc1ccc(C2=C(c3ccc(S(N)(=O)=O)cc3)OC(C)(C)C2=O)cc1OC [Example 24, 5-{4-(Aminosulfonyl)phenyl}-4-{3,4-(dimethoxy)phenyl}-2,2-dimethyl 3(2H)-furanone] | 0.034 µg/mL (≈ 0.0843 µM) | 6.97 µg/mL (≈ 17.3 µM) | – | –
15 | CS(=O)(=O)c1ccc(C2=C(c3ccccc3)C(=O)C3(CCCC3)O2)cc1 [Example 53, 2-{(4-Methylsulfonyl)phenyl}-3phenyl-1-oxa-spiro[4,4]non-2-en-4-one] | 0.03 µg/mL (≈ 0.0814 µM) | 5 µg/mL (≈ 13.6 µM) | – | –
16 | CCC1(CC)OC(c2ccc(S(C)(=O)=O)cc2)=C(c2ccc(C(C)=O)cc2)C1=O [Example 49, 4-(4-Acetylphenyl)-2,2-diethyl-5-{4-(methylsulfonyl)phenyl}-3(2H)-furanone] | 0.3 µg/mL (≈ 0.727 µM) | 30 µg/mL (≈ 72.7 µM) | – | –
17 | CC1(C)OC(c2ccc(S(C)(=O)=O)cc2)=C(c2ccco2)C1=O [Example 18, 2,2-Dimethyl-4-(2-furanyl)-5-{4-(methylsulfonyl)phenyl}-3(2H)-furanone] | 0.2 µg/mL (≈ 0.602 µM) | 30 µg/mL (≈ 90.3 µM) | – | –
18 | CC(O)c1ccc(C2=C(c3ccc(S(C)(=O)=O)cc3)OC(C)(C)C2=O)cc1 (stereo not shown) [Example 111, 2,2-Dimethyl-4-{4-(1-hydroxyethyl)phenyl}-5-{4-(methylsulfonyl)phenyl}-3(2H)-furanone] | 0.3 µg/mL (≈ 0.776 µM) | 50 µg/mL (≈ 129 µM) | – | –
19 | CSc1ccc(C2=C(c3cccc(Cl)c3)C(=O)C(C)(C)O2)cc1 [Example 168, 4-(3-chlorophenyl)-2,2-dimethyl-5-{4-(methylthio)phenyl}-3(2H)-furanone] | 0.5 µg/mL (≈ 1.45 µM) | 3 µg/mL (≈ 8.7 µM) | – | –
20 | CCC1(C)OC(c2ccc(S(C)(=O)=O)cc2)=C(c2cccc(OC)c2)C1=O (stereo not shown) [Example 200] | – | – | 0.776 µM | 77.6 µM
